Results from US20050009924A1 (priority 2003, published 2005).

What was measured:
[1] = tested on: human hepatoma G2 cells; test: Cytotoxicity assay (XTT colorimetric), Hep G2; format: cell-based; settings: Homo sapiens, HepG2; 48 h of drug exposure
[2] = tested on: rat glioma C6 cells; test: Cytotoxicity assay (XTT colorimetric), C6 cells; format: cell-based; settings: Rattus norvegicus, C6; 48 h of drug exposure
[3] = tested on: transcriptional activity of hTERT; test: SEAP reporter assay of hTERT expression, PhTERT-SEAP (hTERT-BJ1); format: cell-based, human; settings: Homo sapiens, hTERT-BJ1, read-out: Relative SEAP activity (%)
Summary of the method: (§1)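 SEAP activity, read as rate of 405 nm absorbance rise with 12 mM p-nitrophenyl phosphate in diethanolamine/MgCl2/homoarginine buffer after 65 °C, 10 min heat inactivation, reports hTERT or CMV promoter activity. G418-selected stable H1299 or hTERT-BJ1 reporter lines were exposed to drug for 24 h.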

[4] = tested on: transcriptional activity of hTERT; test: SEAP reporter assay of hTERT expression, PhTERT-SEAP (H1299); format: cell-based, human; settings: Homo sapiens, NCI-H1299, H1299, read-out: Relative SEAP activity (%)
Summary of the method: as §1

[5] = MTT relative viability, PhTERT-SEAP (H1299) cells; settings: human
Method: The tetrazolium reagent (MTT; 3-(4,5-di-methylthiazol)-2,5-diphenyl tetrazolium bromide, USB) was designed to yield a colored formazan upon metabolic reduction by viable cells. Approximately […] cells were plated onto each well of a 96-well plate and incubated in 5% CO2 at 37° C. for 24 h. To assess the in vitro cytotoxicity, each compound was dissolved in DMSO and prepared immediately before the experiments and was diluted into the complete medium before addition to cell cultures. Test compounds were then added to the culture medium for designated various concentrations. After 48 h, an amount of 25 μL of MTT was added to each well, and the samples were incubated at 37° C. for 4 h. A 100 μL solution of lysis buffer containing 20% SDS and 50% N,N-dimethylformamide was added to each well and incubated at 37° C. for another 16 h. The absorbency at 550 nm was measured using an ELISA reader.
Non small lung cancer cells H1299 (telomerase positive) were grown in RPMI 1640 media supplemented with 10% fetal bovine serum, 100 units/mL penicillin and 100 mg/mL streptomycin in a humidified atmosphere with 5% CO2 at 37° C. The hTERT immortalized hTERT-BJ1 (BD Biosciences Clontech)^39 were grown in DMEM media supplemented with 10% fetal calf serum, 100 units/mL penicillin and 100 mg/mL streptomycin, 1 mM sodium pyruvate, and 4 mM I-arginine in a humidified atmosphere with 5% CO2 at 37° C. Culture media were changed every 3 days. […] The stable clones derived from H1299 or hTERT-BJ1 were cultured using conditions that are similar to their parental cells.

[6] = MTT relative viability, PhTERT-SEAP (hTERT-BJ1) cells; settings: human
[7] = tested on: iron-induced lipid peroxidation in rat brain homogenates; test: Iron-induced lipid peroxidation in rat brain homogenates; settings: for Inhibition of LP(10 mM): mean percent inhibition (Table 3)
[8] = hTERT-BJ1 cells, stable PhTERT-SEAP reporter clone

| Structure (SMILES) | IC50 [1] [µM] | IC50 [2] [µM] | melting point [°C] | Inhibition of LP(10 mM) ([7]; 10 mM) | activity at 2.1 µM [3] [%] | activity at 21 µM [3] [%] | activity at 210 µM [3] [%] | activity at 2.1 µM [4] [%] | activity at 21 µM [4] [%] | activity at 210 µM [4] [%] | viability at 48 h, 2.1 µM [5] [%] | viability at 48 h, 21 µM [5] [%] | viability at 48 h, 210 µM [5] [%] | viability at 48 h, 2.1 µM [6] [%] | viability at 48 h, 21 µM [6] [%] | viability at 48 h, 210 µM [6] [%] | further results |
| --- | --- | --- | --- | --- | --- | --- | --- | --- | --- | --- | --- | --- | --- | --- | --- | --- | --- |
| CCCC(=O)Oc1cccc2c1C(=O)c1cccc(OC(=O)CCC)c1C2=O [IIIb, 1,5-Bis(butyryloxy)-anthraquinone] | 0.02 ± 0.01 | 38.5 ± 2.8 | 211 to 213 | 54 ± 2.2% | – | – | – | – | – | – | – | – | – | – | – | – | activity at 2.6 µM ([3]; 2.6 μM): 107 ± 11.9%; activity at 26 µM ([3]; 26 μM): 119 ± 8.3%; activity at 260 µM ([3]; 260 μM): 134 ± 3.8%; activity at 2.6 µM ([4]; 2.6 μM): 114 ± 7.9%; activity at 26 µM ([4]; 26 μM): 118 ± 8.4%; activity at 260 µM ([4]; 260 μM): 111 ± 4.4%; viability at 48 h, 2.6 µM [5]: 107 ± 5.6%; viability at 48 h, 26 µM [5]: 106 ± 3.2%; viability at 48 h, 260 µM [5]: 87 ± 6.5%; viability at 48 h, 2.6 µM [6]: 109 ± 5.1%; viability at 48 h, 26 µM [6]: 106 ± 5.6%; viability at 48 h, 260 µM [6]: 85 ± 6.6% |
| CCCCCC(=O)Oc1cccc2c1C(=O)c1cccc(OC(=O)CCCCC)c1C2=O [IIIc, 1,5-Bis(hexanoyloxy)-anthraquinone] | 36.2 ± 2.5 | 39.1 ± 4.1 | 183 to 184 | −55 ± 1.5^ % | – | – | – | – | – | – | – | – | – | – | – | – | activity at 2.3 µM ([3]; 2.3 μM): 147 ± 18.8%; activity at 23 µM ([3]; 23 μM): 149 ± 16.1%; activity at 230 µM ([3]; 230 μM): 124 ± 5.3%; activity at 2.3 µM ([4]; 2.3 μM): 91 ± 9.9%; activity at 23 µM ([4]; 23 μM): 95 ± 17.4%; activity at 230 µM ([4]; 230 μM): 95 ± 10.5%; viability at 48 h, 2.3 µM [5]: 117 ± 5.1%; viability at 48 h, 23 µM [5]: 114 ± 4.7%; viability at 48 h, 230 µM [5]: 106 ± 4.3%; viability at 48 h, 2.3 µM [6]: 119 ± 9.4%; viability at 48 h, 23 µM [6]: 98 ± 13.4%; viability at 48 h, 230 µM [6, 8]: 62 ± 6.4% |
| O=C(Oc1cccc2c1C(=O)c1cccc(OC(=O)c3ccccc3)c1C2=O)c1ccccc1 [IIIe, 1,5-Bis(benzoyloxy)-anthraquinone] | 47.7 ± 5.5 | 38.7 ± 3.6 | 336 to 338 | −50 ± 1.9^ % | – | – | – | – | – | – | – | – | – | – | – | – | activity at 2.2 µM ([3]; 2.2 μM): 137 ± 10%; activity at 22 µM ([3]; 22 μM): 122 ± 9.6%; activity at 220 µM ([3]; 220 μM): 84 ± 21.7%; activity at 2.2 µM ([4]; 2.2 μM): 88 ± 10%; activity at 22 µM ([4]; 22 μM): 94 ± 8%; activity at 220 µM ([4]; 220 μM): 86 ± 4.7%; viability at 48 h, 2.2 µM [5]: 99 ± 7.3%; viability at 48 h, 22 µM [5]: 60 ± 11.9%; viability at 48 h, 220 µM [5]: 33 ± 4.7%; viability at 48 h, 2.2 µM [6]: 103 ± 6.5%; viability at 48 h, 22 µM [6]: 87 ± 9.8%; viability at 48 h, 220 µM [6]: 51 ± 4.6% |
| Cc1ccccc1C(=O)Oc1cccc2c1C(=O)c1cccc(OC(=O)c3ccccc3C)c1C2=O [IIIj, 1,5-Bis(2-toluoyloxy)-anthraquinone] | 21.6 ± 2.2 | 25.1 ± 2.8 | 262 to 263 | 23 ± 1.1% | 129 ± 13 | 120 ± 24 | 94 ± 27.1 | 97 ± 4.4 | 91 ± 7.4 | 90 ± 4.2 | 72 ± 4.9 | 36 ± 9.7 | 45 ± 8 | 118 ± 11.6 | 82 ± 8.5 | 39 ± 13 | – |
| Cc1cccc(C(=O)Oc2cccc3c2C(=O)c2cccc(OC(=O)c4cccc(C)c4)c2C3=O)c1 [IIIk, 1,5-Bis(3-toluoyloxy)-anthraquinone] | 18.1 ± 1.5 | 30.1 ± 3.3 | 269 to 270 | −32 ± 1.5^ % | 141 ± 10.5 | 124 ± 15.6 | 86 ± 17.2 | 104 ± 5.4 | 116 ± 12.8 | 110 ± 16.4 | 26 ± 3.7 | 28 ± 5 | 29 ± 3.3 | 98 ± 9.4 | 54 ± 7.5 | 47 ± 4.8 | – |
| Cc1ccc(C(=O)Oc2cccc3c2C(=O)c2cccc(OC(=O)c4ccc(C)cc4)c2C3=O)cc1 [IIIl, 1,5-Bis(4-toluoyloxy)-anthraquinone] | 9.3 ± 0.9 | 37.6 ± 4.1 | 331 to 332 | 33 ± 1.2% | 130 ± 8.8 | 126 ± 13.3 | 99 ± 15.8 | 98 ± 1.1 | 95 ± 4.3 | 95 ± 8.9 | 61 ± 5.8 | 33 ± 2.8 | 32 ± 5.7 | 102 ± 13.9 | 98 ± 6.3 | 56 ± 6.2 | – |
| O=C(Cc1ccccc1)Oc1cccc2c1C(=O)c1cccc(OC(=O)Cc3ccccc3)c1C2=O [IIIm, 1,5-Bis(phenylacetyloxy)-anthraquinone] | 9 ± 1.5 | 39.1 ± 6.2 | 202 to 203 | −1 ± 0.2% | 129 ± 4.5 | 125 ± 4.3 | 100 ± 17.3 | 98 ± 0.3 | 101 ± 6.8 | 142 ± 14 | 91 ± 4.2 | 53 ± 2.3 | 30 ± 1.6 | 106 ± 9 | 97 ± 8.2 | 64 ± 10.2 | – |
| O=C(CCc1ccccc1)Oc1cccc2c1C(=O)c1cccc(OC(=O)CCc3ccccc3)c1C2=O [IIIn, 1,5-Bis(phenylpropionyloxy)-anthraquinone] | 0.4 ± 0.1 | 40.1 ± 5.5 | 219 to 220 | >100% | – | – | – | – | – | – | – | – | – | – | – | – | activity at 2 µM ([3]; 2.0 μM): 126 ± 6.1%; activity at 20 µM ([3]; 20 μM): 124 ± 13.4%; activity at 200 µM ([3]; 200 μM): 110 ± 10.5%; activity at 2 µM ([4]; 2.0 μM): 94 ± 2.5%; activity at 20 µM ([4]; 20 μM): 98 ± 4.7%; activity at 200 µM ([4]; 200 μM): 89 ± 5.2%; viability at 48 h, 2 µM [5]: 111 ± 0.8%; viability at 48 h, 20 µM [5]: 101 ± 4.3%; viability at 48 h, 200 µM [5]: 54 ± 4.1%; viability at 48 h, 2 µM [6, 8]: 111 ± 7.3%; viability at 48 h, 20 µM [6, 8]: 106 ± 6.6%; viability at 48 h, 200 µM [6, 8]: 76 ± 7.2%; Inhibition (%) ([7]; 0.01 mM): 50 ± 0.8%; Inhibition (%) ([7]; 0.1 mM): 95 ± 2.0%; Inhibition (%) ([7]; 1 mM): >100%; Inhibition (%) ([7]; 10 mM): >100% |
| CCSc1cccc2c1C(=O)c1cccc(SCC)c1C2=O [IIa, 1,5-Bis(ethylthio)-anthraquinone] | 12.2 ± 1.1 | 0.02 ± 0.01 | 235 to 236 | – | – | – | – | – | – | – | – | – | – | – | – | – | activity at 3 µM ([3]; 3.0 μM): 109 ± 22.4%; activity at 30 µM ([3]; 30 μM): 110 ± 14.3%; activity at 300 µM ([3]; 300 μM): 104 ± 20.6%; activity at 3 µM ([4]; 3.0 μM): 134 ± 14.4%; activity at 30 µM ([4]; 30 μM): 111 ± 7.7%; activity at 300 µM ([4]; 300 μM): 99 ± 14.3%; viability at 48 h, 3 µM [5]: 111 ± 2.8%; viability at 48 h, 30 µM [5]: 44 ± 7.3%; viability at 48 h, 300 µM [5]: 25 ± 2.3%; viability at 48 h, 3 µM [6]: 112 ± 9.2%; viability at 48 h, 30 µM [6]: 98 ± 12.3%; viability at 48 h, 300 µM [6]: 34 ± 18.1%; LP (%) (10 mM) ([7]; 10 mM, relative percentage of inhibition (Table 1)): 83 ± 2.2% |
